US11491134B2, “Composition for inhibiting skin cell proliferation and/or anti-inflammation method for inhibiting skin cell proliferation and/or anti-inflammation and method for treating skin diseases and/or inflammatory diseases” (Industrial Technology Research Institute, priority 2019, dated 2022)

Test system: keratinocytes, HaCaT cells
Test: Inhibition rate on keratinocyte (HaCaT cell) proliferation, MTT
Assay type: cell-based
Details: Homo sapiens
Description: Dimethyl sulfoxide (DMSO) was used as a solvent to prepare apigenin test samples with different concentrations and luteolin test samples with different concentrations. 9 batches of experiments were performed, which respectively were Batch 1 to Batch 9. There were 6 independent experiments in each batch of experiments. In each independent experiment, inhibition rate of an apigenin test sample with a specific concentration on keratinocyte proliferation and inhibition rate of a luteolin test sample with a specific concentration on keratinocyte proliferation were determined, and inhibition rate of a combination of an apigenin test sample with the said specific concentration and a luteolin test sample with the said specific concentration on keratinocyte proliferation was determined. Between the independent experiments, concentrations of apigenin test samples used were different, and concentrations of luteolin test samples used were also different, however, mole ratios or weight ratios of apigenin test samples to luteolin test samples were the same. Moreover, between the batches of experiments, mole ratios or weight ratios of apigenin test samples to luteolin test samples were different. 5×10^3 keratinocytes, HaCaT cells, were inoculated in a 96-well culture plate and then placed in a 37° C. and 5% CO2 incubator for culturing overnight, and cell numbers at this time point (T0) was used as a benchmark for cell proliferation. After overnight culture, a test sample was added to the cells in the culture plate (refer to Table 1, and the cells of the control group were only treated with dimethyl sulfoxide) for co-culturing for 48 hours (T48). After that, the supernatant in the culture plate was removed. After the supernatant was removed, 50 μL MTT solution (0.5 mg/mL; Life Technologies Cat. No. M-6494) was added to cells and then the culture plate was placed in a 37° C. and 5% CO2 incubator for culturing for 1.5 hours. After that, 150 μL DMSO (J. T. Baker, Cat. No. 9224-03) was added to the cells in the culture plate and shaken for 5 minutes. Thereafter, the absorbance of each well of the culture plate was determined at 570 nm by a continuous wavelength microplate reader, and inhibition rate on cell proliferation was calculated through the following formula: Inhibition rate on cell proliferation=T48 Control group570 nm−T48 Experimental group570 nm)/(T48 Control group570 nm−T0 Control group570 nm) In this experiment, the synergistic effects of apigenin and luteolin were evaluated by CalcuSyn software (BIOSOFT). CalcuSyn software is an analysis software which is commonly used to analyze the drug dosage effect of single drug and multiple drugs at present. CalcuSyn software can be used to analyze drug complex interactions and automatically quantify various phenomena such as synergism and inhibition. CalcuSyn software can process the data of individual drugs and combination drugs with constant-ratio or on-constant-ratio, and can evaluate the interaction of combination drugs by the combination index (CI) (Chou and Talalay, Adv. Enzyme Regul. 22:27-55 (1984) calculated by CalcuSyn software. Calculation formula for the combination index is shown in the following: Combination index=C1/IC1+C2/IC2 C1 and C2 are the respective concentrations of the first compound and the second compound at which the activity of achieving a specific physiological or medical purpose is 50% (or 75%, or 90%) when the first compound and the second compound are analyzed in combination; IC1 and IC2 are the respective concentrations at which the activity of achieving a specific physiological or medical purpose of the first compound and the second compound is 50% (or 75%, or 90%) when the first compound and the second compound are independently analyzed. […]

Q: For O=c1cc(-c2ccc(O)cc2)oc2cc(O)cc(O)c12 [Apigenin, apigenin], which inhibition at 3.125 µM (Batch 1, apigenin 3.125 μM/0.84 μg/mL) is on record?
A: 0%

Q: And the inhibition at 6.25 µM (Batch 1, apigenin 6.25 μM/1.69 μg/mL)?
A: 0%

Q: What about the inhibition at 12.5 µM (Batch 1, apigenin 12.5 μM/3.38 μg/mL) of the same compound?
A: 12.2%

Q: What about the inhibition at 25 µM (Batch 1, apigenin 25 μM/6.76 μg/mL) of the same compound?
A: 29.2%

Q: And the inhibition at 50 µM (Batch 1, apigenin 50 μM/13.51 μg/mL)?
A: 72.2%

Q: And the inhibition at 100 µM (Batch 1, apigenin 100 μM/27.02 μg/mL)?
A: 103%

Q: What about the inhibition at 3.125 µM (Batch 2, apigenin 3.125 μM/0.84 μg/mL) of the same compound?
A: 3.7%

Q: What about the inhibition at 6.25 µM (Batch 2, apigenin 6.25 μM/1.69 μg/mL) of the same compound?
A: 5.8%

Q: And the inhibition at 12.5 µM (Batch 2, apigenin 12.5 μM/3.38 μg/mL)?
A: 15.7%

Q: And the inhibition at 25 µM (Batch 2, apigenin 25 μM/6.76 μg/mL)?
A: 40.7%

Q: What about the inhibition at 50 µM (Batch 2, apigenin 50 μM/13.51 μg/mL) of the same compound?
A: 75.6%

Q: What about the inhibition at 100 µM (Batch 2, apigenin 100 μM/27.02 μg/mL) of the same compound?
A: 105%

Q: What about the inhibition at 3.125 µM (Batch 3, apigenin 3.125 μM/0.84 μg/mL) of the same compound?
A: 0%

Q: What about the inhibition at 6.25 µM (Batch 3, apigenin 6.25 μM/1.69 μg/mL) of the same compound?
A: 5%

Q: And the inhibition at 12.5 µM (Batch 3, apigenin 12.5 μM/3.38 μg/mL)?
A: 17.2%

Q: And the inhibition at 25 µM (Batch 3, apigenin 25 μM/6.76 μg/mL)?
A: 39.7%

Q: And the inhibition at 50 µM (Batch 3, apigenin 50 μM/13.51 μg/mL)?
A: 75.3%

Q: What about the inhibition at 100 µM (Batch 3, apigenin 100 μM/27.02 μg/mL) of the same compound?
A: 103%

Q: And the inhibition at 3.125 µM (Batch 4, apigenin 3.125 μM/0.84 μg/mL)?
A: 0%

Q: And the inhibition at 6.25 µM (Batch 4, apigenin 6.25 μM/1.69 μg/mL)?
A: 0%

Q: And the inhibition at 12.5 µM (Batch 4, apigenin 12.5 μM/3.38 μg/mL)?
A: 8.9%

Q: What about the inhibition at 25 µM (Batch 4, apigenin 25 μM/6.76 μg/mL) of the same compound?
A: 31.9%

Q: And the inhibition at 50 µM (Batch 4, apigenin 50 μM/13.51 μg/mL)?
A: 71.9%

Q: What about the inhibition at 100 µM (Batch 4, apigenin 100 μM/27.02 μg/mL) of the same compound?
A: 103%

Q: What about the inhibition at 3.125 µM (Batch 5, apigenin 3.125 μM/0.84 μg/mL) of the same compound?
A: 2.3%

Q: And the inhibition at 6.25 µM (Batch 5, apigenin 6.25 μM/1.69 μg/mL)?
A: 11.1%

Q: What about the inhibition at 12.5 µM (Batch 5, apigenin 12.5 μM/3.38 μg/mL) of the same compound?
A: 18.3%

Q: What about the inhibition at 25 µM (Batch 5, apigenin 25 μM/6.76 μg/mL) of the same compound?
A: 36.2%

Q: And the inhibition at 50 µM (Batch 5, apigenin 50 μM/13.51 μg/mL)?
A: 77.1%

Q: What about the inhibition at 100 µM (Batch 5, apigenin 100 μM/27.02 μg/mL) of the same compound?
A: 110%

Q: What about the inhibition at 1.5625 µM (Batch 6, apigenin 1.5625 μM/0.42 μg/mL) of the same compound?
A: 0%

Q: And the inhibition at 3.125 µM (Batch 6, apigenin 3.125 μM/0.84 μg/mL)?
A: 0%

Q: What about the inhibition at 6.25 µM (Batch 6, apigenin 6.25 μM/1.69 μg/mL) of the same compound?
A: 0%

Q: What about the inhibition at 12.5 µM (Batch 6, apigenin 12.5 μM/3.38 μg/mL) of the same compound?
A: 1.3%

Q: And the inhibition at 25 µM (Batch 6, apigenin 25 μM/6.76 μg/mL)?
A: 48.7%

Q: And the inhibition at 50 µM (Batch 6, apigenin 50 μM/13.51 μg/mL)?
A: 72%

Q: And the inhibition at 0.625 µM (Batch 7, apigenin 0.625 μM/0.17 μg/mL)?
A: 8%

Q: And the inhibition at 1.25 µM (Batch 7, apigenin 1.25 μM/0.34 μg/mL)?
A: 8.3%

Q: And the inhibition at 2.5 µM (Batch 7, apigenin 2.5 μM/0.68 μg/mL)?
A: 12.8%

Q: What about the inhibition at 5 µM (Batch 7, apigenin 5 μM/1.35 μg/mL) of the same compound?
A: 8.7%

Q: And the inhibition at 10 µM (Batch 7, apigenin 10 μM/2.70 μg/mL)?
A: 24.7%

Q: What about the inhibition at 20 µM (Batch 7, apigenin 20 μM/5.40 μg/mL) of the same compound?
A: 40.4%

Q: What about the inhibition at 0.3125 µM (Batch 8, apigenin 0.3125 μM/0.08 μg/mL) of the same compound?
A: 4.3%

Q: What about the inhibition at 0.625 µM (Batch 8, apigenin 0.625 μM/0.17 μg/mL) of the same compound?
A: 9%

Q: What about the inhibition at 1.25 µM (Batch 8, apigenin 1.25 μM/0.34 μg/mL) of the same compound?
A: 10.1%

Q: And the inhibition at 2.5 µM (Batch 8, apigenin 2.5 μM/0.68 μg/mL)?
A: 8.9%

Q: What about the inhibition at 5 µM (Batch 8, apigenin 5 μM/1.35 μg/mL) of the same compound?
A: 10.4%

Q: And the inhibition at 10 µM (Batch 8, apigenin 10 μM/2.70 μg/mL)?
A: 18.3%

Q: What about the inhibition at 0.15625 µM (Batch 9, apigenin 0.15625 μM/0.04 μg/mL) of the same compound?
A: 1.4%

Q: What about the inhibition at 0.3125 µM (Batch 9, apigenin 0.3125 μM/0.08 μg/mL) of the same compound?
A: 3.9%

Q: And the inhibition at 0.625 µM (Batch 9, apigenin 0.625 μM/0.17 μg/mL)?
A: 2.1%

Q: And the inhibition at 1.25 µM (Batch 9, apigenin 1.25 μM/0.34 μg/mL)?
A: 4.6%

Q: And the inhibition at 2.5 µM (Batch 9, apigenin 2.5 μM/0.68 μg/mL)?
A: 3.2%

Q: What about the inhibition at 5 µM (Batch 9, apigenin 5 μM/1.35 μg/mL) of the same compound?
A: 3.2%
